# From patent publication US20030069295A1, “Use of histamine H3 receptor inverse agonists for the control of appetite and treatment of obesity” (Gliatech, Inc., priority 2001, published 2003)
# Where two headings read alike, the source gives them in different places. Marks after values point to notes of the source that are not given here.
# Assays:
# Histamine H3 receptor = target: T1, Histamine H3 receptor (Rattus norvegicus, UniProt Q9QYN8); test: Histamine H3 receptor binding analysis, [3H]-Nα-methylhistamine competition in rat cerebral cortical membranes, with and without GTPγS; settings: for Ki Ratio (−/+): Ki without GTPγS / Ki with GTPγS; for remaining activity at 10 µM: read-out: percent of [3H]-Nα-methylhistamine bound (mean), 10000 nM of compound; for binding to GTPγS-treated cortical membrane preparation compared with non-treated preparation: result in words; for remaining activity at 30 pM: 0.03 nM of compound; for remaining activity at 0.0001 µM: 0.1 nM of compound; for remaining activity at 0.3 µM: 300 nM of compound
# T1 construct: The cerebral cortical tissues were harvested and frozen on dry ice; from tissue; host or cells: cerebral cortex membranes of male Sprague-Dawley rats
# Protocol: A histamine H3 receptor binding analysis to determine the affinity of various imidazole derivatives for G-protein uncoupled receptors was performed as follows. […] Animals were acclimated to laboratory conditions for a minimum of one week prior to tissue harvesting.
# Animals were anesthetized by NO2 inhalation and euthanized by rapid decapitation. The cerebral cortical tissues were harvested and frozen on dry ice. Rat corticies were mechanically homogenized using a Tissue Tearer in 25 mM Tris buffer (pH 7.5 at 4° C.) containing: EDTA (10 mM), phenylmethylsulfonyl fluoride (0.1 mM), chymostatin and leupeptin (each 0.2 mg/50 mL). The homogenate was centrifuged in a Sorvall centrifuge at 40,000×g for 30 minutes. The pellet was re-suspended in 25 ml water and lysed on ice for 30 minutes. The homogenate was then re-centrifuged and the membrane lysis was repeated. The membranes were centrifuged and the final membrane pellets were resuspended in 14 volumes of water to yield approximately 200 μg protein/100 μl final concentration. The suspension was stored frozen at −80° C. prior to use. Protein concentrations were determined using the Coomassie Plus Protein Assay (available from Pierce of Rockford, Ill.).
# GTPγS causes dissociation of G-protein from receptors. Data are shown as percent of [^3H]-N^α-methylhistamine bound (mean) for each table.
# Sprague-Dawley rats = test: Food intake study in Sprague-Dawley rats; assay type: in vivo, rat; settings: for effect on food consumption by rats: two hours after intraperitoneal administration; for cumulative food intake, mean (g) ± sem: 10 mg/kg i.p., rats
# Protocol: The compounds summarized in Table 3 were examined for their ability to suppress food consumption by adult Sprague-Dawley rats. Male Sprague Dawley rats were purchased from Harlan Laboratories of Indianapolis, Ind. Rats were housed one per cage and maintained on a 12 hour light/dark schedule (lights-out at 12:30 p.m.) with ad libitum access to powdered Teklad Mouse/Rat Diet 7012 (available from Harlan Laboratories of Indianapolis, Ind.) and water. Rats were acclimated to laboratory conditions and food for 1 to 2 weeks prior to initiating food intake studies. On the day of experiments, test compounds were solubilized or suspended in vehicle/carrier and administered to rats (i.p. or p.o.) 30 to 60 minutes prior to the onset of the dark cycle. Food intake was determined at 1, 2, 4, and 24 hours following the onset of the dark cycle. Alternatively, rats were fasted (water provided) for 24 hours prior to evaluating the effects of compounds on food intake. For these studies, compounds or vehicle/carrier were administered and rats were placed in standard small animal metabolism chambers with ad ibitum access to powdered Teklad Mouse/Rat Diet 7012 and water. Food intake was determined at 2 and 4 hours following the onset of feeding.
# Data is cumulative food intake in grams, mean±sem. In the table, * indicates a significant decrease in food intake compared to the vehicle-treated rats (t-test, p<0.05).
# (§1) The percent reduction in food intake by rats two hours after intraperitoneal administration of each compound is shown in Table 5. […] In Table 5, * indicates a significant decrease in food intake compared to the vehicle-treated rats (t-test, p<0.05). The ex vivo binding values in Table 5 represent the drug dose required to obtain ½-maximal H3 receptor occupancy in the brain following intraperitoneal administration. The dose values shown in Table 5 represent the dosage of drug utilized during the food intake studies. In all cases, the tested dose exceeded the amount needed to obtain ½-maximal H3 receptor occupancy in the brain.
# H3 receptor = target: T2, H3 receptor (Rattus norvegicus, UniProt Q9QYN8); test: Ex vivo binding: H3 receptor occupancy in the brain following intraperitoneal administration
# T2 construct: ½-maximal H3 receptor occupancy in the brain following intraperitoneal administration; from tissue; host or cells: brain of dosed animals
# Source text: as §1
# [1] = GTPγS-treated receptor preparation (G-protein uncoupled), read-out: Ki (+) GTPγS
# [2] = untreated receptor preparation (mixture of coupled and uncoupled H3 receptors), read-out: Ki (−) GTPγS
# [3] = Tris-GTPγS, read-out: percent of [3H]-Nα-methylhistamine bound (mean)
# [4] = Tris, read-out: percent of [3H]-Nα-methylhistamine bound (mean)
# T1 sequence (Q9QYN8 whole entry): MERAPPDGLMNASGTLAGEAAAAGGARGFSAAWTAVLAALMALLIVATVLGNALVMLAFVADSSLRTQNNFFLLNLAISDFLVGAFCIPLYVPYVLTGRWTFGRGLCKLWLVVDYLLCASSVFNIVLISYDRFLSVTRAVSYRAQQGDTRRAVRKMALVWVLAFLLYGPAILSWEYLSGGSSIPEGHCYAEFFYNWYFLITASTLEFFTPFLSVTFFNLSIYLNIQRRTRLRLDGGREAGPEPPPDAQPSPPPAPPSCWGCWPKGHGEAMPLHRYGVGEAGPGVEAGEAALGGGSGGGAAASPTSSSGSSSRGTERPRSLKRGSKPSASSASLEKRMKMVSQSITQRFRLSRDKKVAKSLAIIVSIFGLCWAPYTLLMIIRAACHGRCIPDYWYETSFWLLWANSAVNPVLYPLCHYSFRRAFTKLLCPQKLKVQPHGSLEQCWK
# T2 sequence (Q9QYN8 whole entry): as above
smiles,measurement,setting,value
"CC(C)(C)CCC#C[C@@H]1C[C@H]1c1c[nH]cn1 [Compound 6, (1R,2R)-trans-4-(2-(5,5-dimethylhex-1-ynyl)cyclopropyl) imidazole]",Ki,Histamine H3 receptor; [1],0.24 nM
same,Ki Ratio (−/+),Histamine H3 receptor,1.7
same,Ki,Histamine H3 receptor; [2],0.41 nM
same,effect on food consumption by rats,Sprague-Dawley rats; result in words,no measurable effect
same,Ex Vivo Binding (drug dose required to obtain ½-maximal H3 receptor occupancy in the brain),H3 receptor,0.08 ± 0.03 mg/kg
"O=C(CCCCC1CCCCC1)N1CCC(c2c[nH]cn2)CC1 [Compound 5, 4-(N-(5-cyclohexylpentan-1-one-1-yl)piperidin-4-yl)imidazole]",Ex Vivo Binding (drug dose required to obtain ½-maximal H3 receptor occupancy in the brain),H3 receptor,8.0 ± 1.3 mg/kg
"O=C(N[C@@H]1C[C@H]1c1c[nH]cn1)OCCC1CCCCC1 [Compound 1, 4-((1R,2R)-trans-2-(O-(2-cyclohexylethyl)carboxamido)cyclopropyl)imidazole]",Ki,Histamine H3 receptor; [1],7.2 nM
same,Ki Ratio (−/+),Histamine H3 receptor,4.1
same,remaining activity at 0.0003 µM,"Histamine H3 receptor; read-out: percent of [3H]-Nα-methylhistamine bound (mean), 0.3 nM of compound, Tris",108%
same,remaining activity at 0.0003 µM,"Histamine H3 receptor; read-out: percent of [3H]-Nα-methylhistamine bound (mean), 0.3 nM of compound, Tris-GTPγS",103%
same,remaining activity at 0.001 µM,"Histamine H3 receptor; read-out: percent of [3H]-Nα-methylhistamine bound (mean), 1 nM of compound, Tris",95.7%
same,remaining activity at 0.001 µM,"Histamine H3 receptor; read-out: percent of [3H]-Nα-methylhistamine bound (mean), 1 nM of compound, Tris-GTPγS",98.3%
same,remaining activity at 0.003 µM,"Histamine H3 receptor; read-out: percent of [3H]-Nα-methylhistamine bound (mean), 3 nM of compound, Tris",102%
same,remaining activity at 0.003 µM,"Histamine H3 receptor; read-out: percent of [3H]-Nα-methylhistamine bound (mean), 3 nM of compound, Tris-GTPγS",93.3%
same,remaining activity at 0.01 µM,"Histamine H3 receptor; read-out: percent of [3H]-Nα-methylhistamine bound (mean), 10 nM of compound, Tris",102%
same,remaining activity at 0.01 µM,"Histamine H3 receptor; read-out: percent of [3H]-Nα-methylhistamine bound (mean), 10 nM of compound, Tris-GTPγS",76.4%
same,remaining activity at 0.03 µM,"Histamine H3 receptor; read-out: percent of [3H]-Nα-methylhistamine bound (mean), 30 nM of compound, Tris",88.4%
same,remaining activity at 0.03 µM,"Histamine H3 receptor; read-out: percent of [3H]-Nα-methylhistamine bound (mean), 30 nM of compound, Tris-GTPγS",42.6%
same,remaining activity at 0.1 µM,"Histamine H3 receptor; read-out: percent of [3H]-Nα-methylhistamine bound (mean), 100 nM of compound, Tris",67.9%
same,remaining activity at 0.1 µM,"Histamine H3 receptor; read-out: percent of [3H]-Nα-methylhistamine bound (mean), 100 nM of compound, Tris-GTPγS",23.8%
same,remaining activity at 1 µM,"Histamine H3 receptor; read-out: percent of [3H]-Nα-methylhistamine bound (mean), 1000 nM of compound, Tris",12.6%
same,remaining activity at 1 µM,"Histamine H3 receptor; read-out: percent of [3H]-Nα-methylhistamine bound (mean), 1000 nM of compound, Tris-GTPγS",4%
same,remaining activity at 10 µM,Histamine H3 receptor; Tris,-1.6%
same,remaining activity at 10 µM,Histamine H3 receptor; Tris-GTPγS,1.3%
same,binding to GTPγS-treated cortical membrane preparation compared with non-treated preparation,Histamine H3 receptor,higher apparent affinity
same,Ki,Histamine H3 receptor; [2],29.3 nM
same,Ex Vivo Binding (drug dose required to obtain ½-maximal H3 receptor occupancy in the brain),H3 receptor,3.1 ± 1.3 mg/kg
"CC(C)(C)CCOC(=O)N[C@@H]1C[C@H]1c1c[nH]cn1 [Compound 9, 4-((1R,2R)-trans-2-(O-(3,3-dimethyl-but-1-yl)carboxamido)cyclopropyl)imidazole]",Ki,Histamine H3 receptor; [1],4.5 nM
same,Ki Ratio (−/+),Histamine H3 receptor,1.6
same,Ki,Histamine H3 receptor; [2],7.3 nM
same,effect on food consumption by rats,Sprague-Dawley rats; result in words,no measurable effect
same,Ex Vivo Binding (drug dose required to obtain ½-maximal H3 receptor occupancy in the brain),H3 receptor,3.7 ± 0.4 mg/kg
"N[C@H](/C=C\CCc1c[nH]cn1)CC1CCCCC1 [Compound 4, 4-(((5S)(3Z)-5-amino-6-cyclohexyl)hex-3-en-1-yl)imidazole]",Ki,Histamine H3 receptor; [1],1.9 nM
same,Ki Ratio (−/+),Histamine H3 receptor,6.0
same,Ki,Histamine H3 receptor; [2],11.3 nM
same,Ex Vivo Binding (drug dose required to obtain ½-maximal H3 receptor occupancy in the brain),H3 receptor,˜15 mg/kg
"C(=C/CCC1CCCCC1)/CCc1c[nH]cn1 [Compound 2, (3Z)-4-(6-cyclohexylhex-3-en-1-yl)imidazole]",remaining activity at 30 pM,Histamine H3 receptor; [3],98.3%
same,remaining activity at 30 pM,Histamine H3 receptor; [4],98.5%
same,remaining activity at 0.0001 µM,Histamine H3 receptor; [3],107%
same,remaining activity at 0.0001 µM,Histamine H3 receptor; [4],96.7%
same,remaining activity at 0.0003 µM,"Histamine H3 receptor; 0.3 nM of compound, Tris-GTPγS, read-out: percent of [3H]-Nα-methylhistamine bound (mean)",103%
same,remaining activity at 0.0003 µM,"Histamine H3 receptor; 0.3 nM of compound, Tris, read-out: percent of [3H]-Nα-methylhistamine bound (mean)",96.7%
same,remaining activity at 0.001 µM,"Histamine H3 receptor; 1 nM of compound, Tris-GTPγS, read-out: percent of [3H]-Nα-methylhistamine bound (mean)",91.1%
same,remaining activity at 0.001 µM,"Histamine H3 receptor; 1 nM of compound, Tris, read-out: percent of [3H]-Nα-methylhistamine bound (mean)",99.2%
same,remaining activity at 0.003 µM,"Histamine H3 receptor; 3 nM of compound, Tris-GTPγS, read-out: percent of [3H]-Nα-methylhistamine bound (mean)",77.4%
same,remaining activity at 0.003 µM,"Histamine H3 receptor; 3 nM of compound, Tris, read-out: percent of [3H]-Nα-methylhistamine bound (mean)",88.7%
same,remaining activity at 0.01 µM,"Histamine H3 receptor; 10 nM of compound, Tris-GTPγS, read-out: percent of [3H]-Nα-methylhistamine bound (mean)",54.8%
same,remaining activity at 0.01 µM,"Histamine H3 receptor; 10 nM of compound, Tris, read-out: percent of [3H]-Nα-methylhistamine bound (mean)",60.1%
same,remaining activity at 0.03 µM,"Histamine H3 receptor; 30 nM of compound, Tris-GTPγS, read-out: percent of [3H]-Nα-methylhistamine bound (mean)",26.2%
same,remaining activity at 0.03 µM,"Histamine H3 receptor; 30 nM of compound, Tris, read-out: percent of [3H]-Nα-methylhistamine bound (mean)",32.6%
same,remaining activity at 0.1 µM,"Histamine H3 receptor; 100 nM of compound, Tris-GTPγS, read-out: percent of [3H]-Nα-methylhistamine bound (mean)",10.7%
same,remaining activity at 0.1 µM,"Histamine H3 receptor; 100 nM of compound, Tris, read-out: percent of [3H]-Nα-methylhistamine bound (mean)",13.5%
same,remaining activity at 0.3 µM,Histamine H3 receptor; [3],4.4%
same,remaining activity at 0.3 µM,Histamine H3 receptor; [4],4.5%
same,remaining activity at 1 µM,"Histamine H3 receptor; 1000 nM of compound, Tris-GTPγS, read-out: percent of [3H]-Nα-methylhistamine bound (mean)",3.4%
same,remaining activity at 1 µM,"Histamine H3 receptor; 1000 nM of compound, Tris, read-out: percent of [3H]-Nα-methylhistamine bound (mean)",0.4%
same,Ki,Histamine H3 receptor; [1],3.6 nM
same,Ki Ratio (−/+),Histamine H3 receptor,1.3
same,binding to GTPγS-treated cortical membrane preparation compared with non-treated preparation,Histamine H3 receptor,relatively little difference in binding
same,Ki,Histamine H3 receptor; [2],4.6 nM
same,effect on food consumption by rats,Sprague-Dawley rats; result in words,no measurable effect
same,Ex Vivo Binding (drug dose required to obtain ½-maximal H3 receptor occupancy in the brain),H3 receptor,0.92 ± 0.01 mg/kg
"O=C(N[C@@H]1C[C@H]1c1c[nH]cn1)OCC1CCCCC1 [Compound 3, 4-((1R,2R)-trans-2-(O-(2-cyclohexylmethyl)carboxamido)cyclopropyl)imidazole]",Ki,"Histamine H3 receptor; Ki (+) GTPγS, GTPγS-treated receptor preparation (G-protein uncoupled)",4.2 nM
same,Ki,"Histamine H3 receptor; Ki (−) GTPγS, untreated receptor preparation (mixture of coupled and uncoupled H3 receptors)",10.1 nM
same,Ki Ratio (−/+),Histamine H3 receptor,2.4
same,"cumulative food intake, mean (g) ± sem",Sprague-Dawley rats; 1 hr following onset of dark cycle,1.8 ± 0.3* g
same,"cumulative food intake, mean (g) ± sem",Sprague-Dawley rats; 2 hr following onset of dark cycle,4.4 ± 0.2* g
same,"cumulative food intake, mean (g) ± sem",Sprague-Dawley rats; 4 hr following onset of dark cycle,7.1 ± 0.5* g
same,"cumulative food intake, mean (g) ± sem",Sprague-Dawley rats; 24 hr following onset of dark cycle,17.4 ± 1.2* g
same,effect of a single administration on food consumption,"Sprague-Dawley rats; single administration, up to 24 hours, result in words",significant reduction of food consumption
same,Ex Vivo Binding (drug dose required to obtain ½-maximal H3 receptor occupancy in the brain),H3 receptor,2.6 ± 1.3 mg/kg
"O=C(N[C@@H]1C[C@H]1c1c[nH]cn1)OCc1c(Cl)cccc1Cl [Compound 7, 4-((1R,2R)-trans-2-(O-(2,6-dichlorophenylmethyl)carboxamido)cyclopropyl)imidazole]",Ki,Histamine H3 receptor; [1],2.3 nM
same,Ki Ratio (−/+),Histamine H3 receptor,1.5
same,Ki,Histamine H3 receptor; [2],3.4 nM
same,effect on food consumption by rats,Sprague-Dawley rats; result in words,no measurable effect
same,Ex Vivo Binding (drug dose required to obtain ½-maximal H3 receptor occupancy in the brain),H3 receptor,2.9 ± 1.3 mg/kg
"Fc1ccc(C(OCCCc2c[nH]cn2)c2ccc(F)cc2)cc1 [Compound 8, 3-(1H-imidazol-4-yl)propyl-di(p-fluorophenyl)-methyl ether]",Ki,Histamine H3 receptor; [1],7.8 nM
same,Ki Ratio (−/+),Histamine H3 receptor,2.3
same,Ki,Histamine H3 receptor; [2],18.2 nM
same,Ex Vivo Binding (drug dose required to obtain ½-maximal H3 receptor occupancy in the brain),H3 receptor,5.6 ± 0.12 mg/kg
